pIC50: −log10 of the molar value.
Columns and labels:
Trypanosoma cruzi [1] = assay: Antitrypanosomal activity against Trypanosoma cruzi Tulahuen 2 assessed as inhibition of epimastigotes growth at 50 uM; assay type: functional; conditions: read-out: GI
Leishmania braziliensis = assay: Antileishmanial activity against Leishmania (Viannia) braziliensis promastigotes; assay type: functional, organism-based
Trypanosoma cruzi [2] = assay: Antitrypanosomal activity against Trypanosoma cruzi Tulahuen 2 assessed as inhibition of epimastigotes growth; assay type: functional, organism-based
[3] = Selectivity index, ratio of IC50 for rhesus monkey LLC-MK2 cells to IC50 for Leishmania (Viannia) braziliensis promastigotes; assay type: toxicity, cell-based; conditions: read-out: Ratio IC50
[4] = Selectivity index, ratio of IC50 for rhesus monkey LLC-MK2 cells to IC50 for Leishmania amazonensis promastigotes; assay type: toxicity, cell-based; conditions: read-out: Ratio IC50
LLC-MK2 = assay: Cytotoxicity against rhesus monkey LLC-MK2 cells after 48 hrs; assay type: cell-based; conditions: Macaca mulatta, LLC-MK2, 48 h
Leishmania amazonensis = assay: Antileishmanial activity against Leishmania amazonensis promastigotes after 48 hrs; assay type: functional, organism-based
[5] = Selectivity index, ratio of IC50 for rhesus monkey LLC-MK2 cells to IC50 for Trypanosoma cruzi Tulahuen 2 epimastigotes; assay type: toxicity, cell-based; conditions: read-out: Ratio IC50
Leishmania sp. = assay: Antileishmanial activity against Leishmania sp. by MTT assay; assay type: functional, organism-based

SMILES	pIC50 (Leishmania braziliensis)	pIC50 (Trypanosoma cruzi [2])	inhibition of growth at 50 µM (Trypanosoma cruzi [1]) [%]	also measured
CC1=CC[C@H](C(C)CCN(C)c2ccccc2)CC1 (mixture of isomers)	4.26	< 4.30	0	
N=C(N)c1ccc(OCCCCCOc2ccc(C(=N)N)cc2)cc1 [PENTAMIDINE]	4.31			
CCCN(CCC(C)[C@H]1CC=C(C)CC1)S(=O)(=O)c1ccc(C)cc1 (mixture of isomers)	4.92			selectivity ratio [3]: 10; selectivity ratio [4]: > 5.2; pIC50 (LLC-MK2): < 2.99; pIC50 (Leishmania amazonensis): 3.71
CC1=CC[C@H](C(C)CCNCCO)CC1 (mixture of isomers)	4.63	< 4.30	41.8	selectivity ratio [3]: 10; selectivity ratio [4]: 3.4; pIC50 (LLC-MK2): 3.23; pIC50 (Leishmania amazonensis): 3.76
CC1CS(=O)(=O)CCN1/N=C/c1ccc([N+](=O)[O-])o1 (centres undefined) [NIFURTIMOX]			100	
CC1=CC[C@H](C(C)CCNC(C)C)CC1 (mixture of isomers)	3.60			
COc1ccc(NCCC(C)[C@H]2CC=C(C)CC2)cc1 (mixture of isomers)	4.24			
C=C(C)[C@H]1CC=C(C)CC1 [D-LIMONENE]	3.06	< 4.30	0	pIC50 (Leishmania sp.): 3.73
CC1=CC[C@H](C(C)CCNCc2ccco2)CC1 (mixture of isomers)	4.45	4.30	51.4	
CCCNCCC(C)[C@H]1CC=C(C)CC1 (mixture of isomers)	4.76	< 4.30	21	selectivity ratio [3]: 10; selectivity ratio [4]: 3.6; pIC50 (LLC-MK2): 3.72; pIC50 (Leishmania amazonensis): 4.27
CC1=CC[C@H](C(C)CCN2CCNCC2)CC1 (mixture of isomers)	3.57	4.72	82.4	
CC1=CC[C@H](C(C)CCN2CCOCC2)CC1 (mixture of isomers)	2.99	< 4.30	20.7	

The next lines start with results.

pIC50 (Leishmania braziliensis)	pIC50 (Trypanosoma cruzi [2])	SMILES	inhibition of growth at 50 µM (Trypanosoma cruzi [1]) [%]	also measured
3.59	4.30	CC1=CC[C@H](C(C)CCNCc2ccccc2)CC1 (mixture of isomers)	53.5	
4.57		CC1=CC[C@H](C(C)CCNc2ccccn2)CC1 (some centres undefined)		
4.94	4.53	CC1=CC[C@H](C(C)CCNc2ccccc2)CC1 (mixture of isomers)	70.5	selectivity ratio [3]: 10; selectivity ratio [4]: 3.5; pIC50 (LLC-MK2): 3.51; selectivity ratio [5]: 10.4; pIC50 (Leishmania amazonensis): 4.05
4.23		CC1=CC[C@H](C(C)CCNc2ccc(Cl)cc2)CC1 (mixture of isomers)		
4.07		CC1=CC[C@H](C(C)CCNc2cccc(C(F)(F)F)c2)CC1 (mixture of isomers)		
4.55		CC1=CC[C@H](C(C)CCNc2ccc(C)cc2)CC1 (mixture of isomers)		

From ChEMBL document CHEMBL1157048, “Synthesis and in vitro activity of limonene derivatives against Leishmania and Trypanosoma” (Eur J Med Chem, 2010)
